Assays:
[1] = molecular target: T1, human MIF (Homo sapiens, UniProt P14174); test: Depletion of human MIF from supernatant of cultured HepG2 cells (sandwich ELISA); assay type: cell-based; settings: 100 nM huMIF, after 24 hours
T1 sequence (P14174 2-115 limits assumed): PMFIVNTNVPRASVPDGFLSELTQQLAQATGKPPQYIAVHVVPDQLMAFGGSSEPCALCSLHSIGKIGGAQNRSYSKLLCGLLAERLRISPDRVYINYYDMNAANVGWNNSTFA
Method: In an experiment the results of which are presented in FIG. 3, bifunctional molecules were able to deplete human MIF from the supernatant of culture HepG2 cells. Briefly, human MIF (100 nM) was added to cell culture media in the presence of negative control MIF inhibitor 3w as well as bifunctional molecules MIF-NVS-PEGn-GN3, MIF-GN3, MIF-PEGn-Gn3, MIF-AcF3-1, MIF-AcF3-2, and MIF-AcF3-3. All molecules utilized a known MIF-binding ligand. Experiments were performed in 96 well plates (approximate surface area 0.3 cm^2). HepG2 cells were grown to 90% confluency in RPMI media, then washed with PBS (2×) and treated with serum-free media (optimem+0.1% BSA, +Pen/Strep) containing 100 nM huMIF (Cayman Chemical) and compounds (when applicable). Compounds were diluted from 1 mM stock solutions in DMSO. After 24 hours, a sample of the supernatant (2 uL) was collected, diluted 1:100, and analyzed for MIF content by sandwich ELISA (and incubated for 24 hours in the presence or absence of compound). Remaining MIF levels were determined by sandwich ELISA (biolegend monoclonal anti-MIF and biotinylated anti-MIF antibodies). Data represents the average of at least 3 biological replicates, and error bars represent a standard deviation. After 24 hours, up to 95.3% of the MIF had been depleted from cell culture media (in the case of MIF-AcF3-3).

[2] = test system: PC3 human prostate cancer cells; test: Mouse model of prostate cancer (PC3 engraftment), tumor growth; assay type: in vivo; settings: nude mice engrafted with PC3 cells, treatment initiated immediately
Excerpt: In this experiment, nude mice were engrafted with PC3 human prostate cancer cells. Treatment was then initiated immediately with either a non-bifunctional MIF inhibitor (3w), an anti-MIF antibody, or MIF-GN3.

[3] = molecular target: T1, human MIF; test: Trafficking of MIF internalized by HepG2 cells to lysosomes (immunofluorescence colocalization); assay type: cell-based; settings: 100 nM rhuMIF, 200 nM compound, 12 hours
Method: In this experiment, cells were incubated with rhuMIF (Cayman) at a concentration of 100 nM with 200 nM MIF-GN3.

[4] = molecular target: T1, human MIF; test: Depletion of injected human MIF from mice (serum sandwich ELISA); assay type: in vivo, mouse
Method: Human MIF has a half-life of approximately 40 minutes in mice. In this experiment, human recombinant MIF (Cayman chemical) was co-injected into mice with an anti-DNP IgG, which was used as an injection positive control. In particular, nude mice were injected with 5 μg recombinant human MIF and 200 μg anti-DNP IgG as an injection control (FIG. 4). MIF-GN3 was then injected at the concentration shown and blood drawn every twenty minutes over the course of two hours. Serum was diluted 1:100 and analyzed for MIF content by sandwich ELISA (biolegend monoclonal anti-MIF and biotinylated anti-MIF antibodies). […] In the mice treated with MIF-GN3, a moderate increase in huMIF levels up to 20 ng/ml was seen, while in mice injected with PBS negative control, serum levels of up to 150 ng/ml were observed, evidencing a substantial decrease in huMIF levels as a consequence of the administration of MIF-GN3.

| Structure (SMILES) | MIF depleted from cell culture media [1] [%] | tumor growth [2] | MIF internalization in lysosomes [3] | serum huMIF levels ([4]; nude mice injected with 5 μg recombinant human MIF, blood drawn over two hours) | depletion of injected human MIF from mice ([4]; nude mice, FIG. 5) |
| --- | --- | --- | --- | --- | --- |
| O=C(CCOCC(COCCC(=O)NCCOCCOCCOCCOC[C@@]12CO[C@@H](O1)[C@H](NC(=O)C(F)(F)F)[C@@H](O)[C@H]2O)(COCCC(=O)NCCOCCOCCOCCOC[C@@]12CO[C@@H](O1)[C@H](NC(=O)C(F)(F)F)[C@@H](O)[C@H]2O)NC(=O)CCCOc1ccc2nc(-c3cn(-c4ccc(O)c(F)c4)nn3)ccc2c1)NCCOCCOCCOCCOC[C@@]12CO[C@@H](O1)[C@H](NC(=O)C(F)(F)F)[C@@H](O)[C@H]2O [MIF-AcF3-3] | 95.3 | – | – | – | – |
| CC(=O)N[C@H]1[C@H](OCCOCCOCCNC(=O)CCOCC(COCCC(=O)NCCOCCOCCO[C@@H]2O[C@H](CO)[C@H](O)[C@H](O)[C@H]2NC(C)=O)(COCCC(=O)NCCOCCOCCO[C@@H]2O[C@H](CO)[C@H](O)[C@H](O)[C@H]2NC(C)=O)NC(=O)CNC(=O)CCCOc2ccc3nc(-c4cn(-c5ccc(O)c(F)c5)nn4)ccc3c2)O[C@H](CO)[C@H](O)[C@@H]1O [MIF-GN3] | – | slowing of tumor growth | evidencing internalization in lysosomes | up to 20 ng/ml | mediates the depletion of injected human MIF from mice |

— patent US12485178B2, “Bifunctional small molecules to target the selective degradation of circulating proteins” (YALE UNIVERSITY, priority 2018, dated 2025)
